Source: PubChem BioAssay (NCI)
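Protocol summary: plate cells (96-well), add compound at 5 concentrations, incubate 48 h, interpolate endpoints linearly. The concentration for full growth arrest is given as TGI.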

Legend:
Experiment in all cases: NCI-60 cell line screen, 48 h
786-0 renal = tested on: 786-0 renal
A498 renal = tested on: A498 renal
A549 NSCLC = tested on: A549 NSCLC
ACHN renal = tested on: ACHN renal
BT-549 breast = tested on: BT-549 breast
CAKI-1 renal = tested on: CAKI-1 renal
CCRF-CEM leukemia = tested on: CCRF-CEM leukemia
COLO 205 colon = tested on: COLO 205 colon
DU-145 prostate = tested on: DU-145 prostate
EKVX NSCLC = tested on: EKVX NSCLC
HCC-2998 colon = tested on: HCC-2998 colon
HCT-116 colon = tested on: HCT-116 colon
HCT-15 colon = tested on: HCT-15 colon
HOP-62 NSCLC = tested on: HOP-62 NSCLC
HOP-92 NSCLC = tested on: HOP-92 NSCLC
HS 578T breast = tested on: HS 578T breast
HT29 colon = tested on: HT29 colon
IGROV1 ovarian = tested on: IGROV1 ovarian
K-562 leukemia = tested on: K-562 leukemia
KM12 colon = tested on: KM12 colon
LOX IMVI melanoma = tested on: LOX IMVI melanoma
M14 melanoma = tested on: M14 melanoma
MALME-3M melanoma = tested on: MALME-3M melanoma
MCF7 breast = tested on: MCF7 breast
MDA-MB-231 breast = tested on: MDA-MB-231 breast
MDA-MB-435 = tested on: MDA-MB-435
MDA-N = tested on: MDA-N
MOLT-4 leukemia = tested on: MOLT-4 leukemia
NCI-H226 lung = tested on: NCI-H226 lung
NCI-H23 lung = tested on: NCI-H23 lung
NCI-H460 lung = tested on: NCI-H460 lung
NCI-H522 lung = tested on: NCI-H522 lung
NCI/ADR-RES ovarian = tested on: NCI/ADR-RES ovarian
OVCAR-3 ovarian = tested on: OVCAR-3 ovarian
OVCAR-4 ovarian = tested on: OVCAR-4 ovarian
OVCAR-5 ovarian = tested on: OVCAR-5 ovarian
OVCAR-8 ovarian = tested on: OVCAR-8 ovarian
PC-3 prostate = tested on: PC-3 prostate
RPMI-8226 leukemia = tested on: RPMI-8226 leukemia
SF-268 CNS = tested on: SF-268 CNS
SF-295 CNS = tested on: SF-295 CNS
SF-539 CNS = tested on: SF-539 CNS
SK-MEL-28 melanoma = tested on: SK-MEL-28 melanoma
SK-MEL-5 melanoma = tested on: SK-MEL-5 melanoma
SK-OV-3 ovarian = tested on: SK-OV-3 ovarian
SN12C renal = tested on: SN12C renal
SNB-19 CNS = tested on: SNB-19 CNS
SR leukemia = tested on: SR leukemia
SW-620 colon = tested on: SW-620 colon
T-47D breast = tested on: T-47D breast
TK-10 renal = tested on: TK-10 renal
U251 CNS = tested on: U251 CNS
UACC-257 melanoma = tested on: UACC-257 melanoma
UACC-62 melanoma = tested on: UACC-62 melanoma
UO-31 renal = tested on: UO-31 renal
HL-60(TB) leukemia = tested on: HL-60(TB) leukemia
SK-MEL-2 melanoma = tested on: SK-MEL-2 melanoma
SNB-75 CNS = tested on: SNB-75 CNS

N#CCN1c2ccccc2CCC1Cl (stereo not given)
TGI (786-0 renal): > 10 µM
TGI (A498 renal): > 10 µM
TGI (A549 NSCLC): > 10 µM
TGI (ACHN renal): > 10 µM
TGI (BT-549 breast): > 10 µM
TGI (CAKI-1 renal): > 10 µM
TGI (CCRF-CEM leukemia): > 10 µM
TGI (COLO 205 colon): > 10 µM
TGI (DU-145 prostate): > 10 µM
TGI (EKVX NSCLC): > 10 µM
TGI (HCC-2998 colon): > 10 µM
TGI (HCT-116 colon): > 10 µM
TGI (HCT-15 colon): > 10 µM
TGI (HOP-62 NSCLC): > 10 µM
TGI (HOP-92 NSCLC): > 10 µM
TGI (HS 578T breast): > 10 µM
TGI (HT29 colon): > 10 µM
TGI (IGROV1 ovarian): > 10 µM
TGI (K-562 leukemia): > 10 µM
TGI (KM12 colon): > 10 µM
TGI (LOX IMVI melanoma): > 10 µM
TGI (M14 melanoma): > 10 µM
TGI (MALME-3M melanoma): > 10 µM
TGI (MCF7 breast): > 10 µM
TGI (MDA-MB-231 breast): > 10 µM
TGI (MDA-MB-435): > 10 µM
TGI (MDA-N): > 10 µM
TGI (MOLT-4 leukemia): > 10 µM
TGI (NCI-H226 lung): > 10 µM
TGI (NCI-H23 lung): > 10 µM
TGI (NCI-H460 lung): > 10 µM
TGI (NCI-H522 lung): > 10 µM
TGI (NCI/ADR-RES ovarian): > 10 µM
TGI (OVCAR-3 ovarian): > 10 µM
TGI (OVCAR-4 ovarian): > 10 µM
TGI (OVCAR-5 ovarian): > 10 µM
TGI (OVCAR-8 ovarian): > 10 µM
TGI (PC-3 prostate): > 10 µM
TGI (RPMI-8226 leukemia): > 10 µM
TGI (SF-268 CNS): > 10 µM
TGI (SF-295 CNS): > 10 µM
TGI (SF-539 CNS): > 10 µM
TGI (SK-MEL-28 melanoma): > 10 µM
TGI (SK-MEL-5 melanoma): > 10 µM
TGI (SK-OV-3 ovarian): > 10 µM
TGI (SN12C renal): > 10 µM
TGI (SNB-19 CNS): > 10 µM
TGI (SR leukemia): > 10 µM
TGI (SW-620 colon): > 10 µM
TGI (T-47D breast): > 10 µM
TGI (TK-10 renal): > 10 µM
TGI (U251 CNS): > 10 µM
TGI (UACC-257 melanoma): > 10 µM
TGI (UACC-62 melanoma): > 10 µM
TGI (UO-31 renal): > 10 µM

COC(OC)(c1ccccc1)C(Br)Br
TGI (786-0 renal): 69.4 µM
TGI (A498 renal): > 100 µM
TGI (A549 NSCLC): > 100 µM
TGI (ACHN renal): > 100 µM
TGI (BT-549 breast): > 100 µM
TGI (CAKI-1 renal): 48.5 µM
TGI (CCRF-CEM leukemia): 42.6 µM
TGI (COLO 205 colon): 39.2 µM
TGI (DU-145 prostate): > 100 µM
TGI (EKVX NSCLC): > 100 µM
TGI (HCC-2998 colon): > 100 µM
TGI (HCT-116 colon): 37.2 µM
TGI (HCT-15 colon): 42.4 µM
TGI (HL-60(TB) leukemia): > 100 µM
TGI (HOP-62 NSCLC): > 100 µM
TGI (HS 578T breast): > 100 µM
TGI (HT29 colon): > 100 µM
TGI (IGROV1 ovarian): > 100 µM
TGI (K-562 leukemia): 71.6 µM
TGI (KM12 colon): > 100 µM
TGI (LOX IMVI melanoma): > 100 µM
TGI (M14 melanoma): 37.8 µM
TGI (MALME-3M melanoma): 43.8 µM
TGI (MCF7 breast): > 100 µM
TGI (MDA-MB-231 breast): > 100 µM
TGI (MDA-MB-435): > 100 µM
TGI (MDA-N): > 100 µM
TGI (MOLT-4 leukemia): 74.2 µM
TGI (NCI-H226 lung): > 100 µM
TGI (NCI-H23 lung): > 100 µM
TGI (NCI-H460 lung): > 100 µM
TGI (NCI-H522 lung): 33 µM
TGI (NCI/ADR-RES ovarian): > 100 µM
TGI (OVCAR-3 ovarian): > 100 µM
TGI (OVCAR-5 ovarian): > 100 µM
TGI (OVCAR-8 ovarian): > 100 µM
TGI (PC-3 prostate): > 100 µM
TGI (RPMI-8226 leukemia): > 100 µM
TGI (SF-268 CNS): > 100 µM
TGI (SF-295 CNS): > 100 µM
TGI (SK-MEL-2 melanoma): > 100 µM
TGI (SK-MEL-28 melanoma): > 100 µM
TGI (SK-MEL-5 melanoma): > 100 µM
TGI (SK-OV-3 ovarian): > 100 µM
TGI (SN12C renal): > 100 µM
TGI (SNB-19 CNS): > 100 µM
TGI (SNB-75 CNS): > 100 µM
TGI (SR leukemia): 70.6 µM
TGI (SW-620 colon): 34.5 µM
TGI (T-47D breast): > 100 µM
TGI (U251 CNS): > 100 µM
TGI (UACC-257 melanoma): > 100 µM
TGI (UACC-62 melanoma): > 100 µM
TGI (UO-31 renal): > 100 µM

C/C(=N\NC(=O)Nc1ccccc1Cl)c1ccc(O)cc1
TGI (786-0 renal): > 100 µM
TGI (A549 NSCLC): > 100 µM
TGI (ACHN renal): > 100 µM
TGI (BT-549 breast): > 100 µM
TGI (CAKI-1 renal): > 100 µM
TGI (CCRF-CEM leukemia): > 100 µM
TGI (COLO 205 colon): > 100 µM
TGI (DU-145 prostate): > 100 µM
TGI (EKVX NSCLC): > 100 µM
TGI (HCC-2998 colon): > 100 µM
TGI (HCT-116 colon): > 100 µM
TGI (HCT-15 colon): > 100 µM
TGI (HL-60(TB) leukemia): > 100 µM
TGI (HOP-92 NSCLC): > 100 µM
TGI (HS 578T breast): > 100 µM
TGI (HT29 colon): > 100 µM
TGI (IGROV1 ovarian): > 100 µM
TGI (K-562 leukemia): > 100 µM
TGI (KM12 colon): > 100 µM
TGI (LOX IMVI melanoma): > 100 µM
TGI (M14 melanoma): > 100 µM
TGI (MALME-3M melanoma): > 100 µM
TGI (MCF7 breast): > 100 µM
TGI (MDA-MB-231 breast): > 100 µM
TGI (MDA-MB-435): > 100 µM
TGI (MDA-N): > 100 µM
TGI (MOLT-4 leukemia): > 100 µM
TGI (NCI-H226 lung): > 100 µM
TGI (NCI-H23 lung): > 100 µM
TGI (NCI-H460 lung): > 100 µM
TGI (NCI-H522 lung): > 100 µM
TGI (NCI/ADR-RES ovarian): > 100 µM
TGI (OVCAR-3 ovarian): > 100 µM
TGI (OVCAR-4 ovarian): > 100 µM
TGI (OVCAR-5 ovarian): > 100 µM
TGI (OVCAR-8 ovarian): > 100 µM
TGI (PC-3 prostate): > 100 µM
TGI (RPMI-8226 leukemia): > 100 µM
TGI (SF-268 CNS): > 100 µM
TGI (SF-295 CNS): > 100 µM
TGI (SF-539 CNS): > 100 µM
TGI (SK-MEL-2 melanoma): > 100 µM
TGI (SK-MEL-28 melanoma): > 100 µM
TGI (SK-MEL-5 melanoma): > 100 µM
TGI (SK-OV-3 ovarian): > 100 µM
TGI (SN12C renal): > 100 µM
TGI (SNB-19 CNS): > 100 µM
TGI (SNB-75 CNS): 75.8 µM
TGI (SR leukemia): > 100 µM
TGI (SW-620 colon): > 100 µM
TGI (T-47D breast): > 100 µM
TGI (TK-10 renal): > 100 µM
TGI (U251 CNS): > 100 µM
TGI (UACC-257 melanoma): > 100 µM
TGI (UACC-62 melanoma): > 100 µM
TGI (UO-31 renal): > 100 µM
